Peptide text beside a SMILES is read from it.
How the values were obtained:
[1] = test system: FeCl3-induced carotid artery thrombosis; assay: Ferric chloride-induced carotid artery thrombosis model; format: in vivo, C57BL/6 male mice; conditions: mice, 10% FeCl3
Experimental: All animal experiments were carried out under protocol 041/12 approved by Institutional Animal Care and Use Committee, National University of Singapore. The ferric chloride induced carotid artery thrombosis model was performed as described previously [Eckly A, et al., J Thromb Haemost 9: 779-89 (2011)] with minor modifications. Typically, C57BL/6 male mice (9-11 weeks old, 24.5-27.5 g) were anesthetized with an intraperitoneal injection of ketamine (75 mg/kg) and medetomidine (1 mg/kg). 100 μL of different doses of avathrin were injected into the mice via tail vein. The right carotid artery was dissected using blunt dissection and a vascular injury was caused applying filter paper of 2 mm×2 mm saturated with FeCl3 on top of the carotid artery. After 3 min, the filter paper was removed and the vessel was washed with sterile normal saline. To determine the time to occlusion, a miniature Doppler flow probe (Transonic Systems Inc., Ithaca, N.Y., USA) was placed around the carotid artery and blood flow was recorded using a Transonic® flow meter from ADInstruments (Dunedin, New Zealand). The maximal time for monitoring the blood flow after injury was 30 min. Mice were euthanized by cervical dislocation immediately after the completion of the experiment and prior to recovery from anesthesia.

[2] = test system: other serine proteases (trypsin, fIXa, fXIa, fXa, chymotrypsin, tPA, fVIIa, plasmin, APC, kallikrein, urokinase, fXIIa); assay: Serine protease selectivity screen (amidolytic assays with chromogenic substrates); format: biochemical
Experimental: Avathrin was screened for its selectivity against 13 serine proteases including procoagulant, anticoagulant, fibrinolytic and classical serine proteases (thrombin, trypsin, fIXa, fXIa, fXa, chymotrypsin, tPA, fVIIa, plasmin, APC, kallikrien, urokinase and fXIIa). […]
Thrombin amidolytic activity assays for all peptides were performed in 96-wells microtiter plates in 50 mM Tris buffer (pH 7.4) containing 100 mM NaCl and 1 mg/ml bovine serum albumin. […] The rates of formation of p-nitroaniline were followed by measuring the absorbance at 405 nm for 10 min with a Tecan InfinitePro M200 microplate reader from Tecan (Männedorf, Switzerland). […] To measure the inhibitory constants, different concentrations of S2238 were used and the residual velocities were determined using the Morrison's tight binding equation. Inhibition of thrombin fibrinogenolytic activity of peptides were tested by measuring absorbance at 650 nm using a Sunrise microplate reader from Tecan (Männedorf, Switzerland) as described previously [Koh C Y, et al., J Biol Chem 282: 29101-13 (2007)]. […] Effects of avathrin on the amidolytic activities of these serine proteases were determined using respective chromogenic substrates. […]

## CC[C@H](C)[C@H](NC(=O)[C@H](CCCCN)NC(=O)[C@@H]1CCCN1C(=O)[C@@H](NC(=O)[C@H](C)NC(=O)[C@@H](NC(=O)[C@H](CCC(N)=O)NC(=O)[C@H](Cc1c[nH]cn1)NC(=O)CNC(=O)CNC(=O)[C@@H](N)CO)[C@@H](C)O)C(C)C)C(=O)N[C@@H](CO)C(=O)N[C@@H](CCCCN)C(=O)N[C@@H](CCC(N)=O)C(=O)NCC(=O)N[C@@H](CC(C)C)C(=O)NCC(=O)NCC(=O)N[C@@H](CC(=O)O)C(=O)N[C@@H](Cc1ccccc1)C(=O)N[C@@H](CCC(=O)O)C(=O)N[C@@H](CCC(=O)O)C(=O)N[C@H](C(=O)N1CCC[C@H]1C(=O)N[C@@H](CO)C(=O)N[C@@H](CC(=O)O)C(=O)N[C@@H](CCC(=O)O)C(=O)N[C@H](C(=O)N[C@H](C(=O)N[C@@H](CCC(=O)O)C(=O)O)[C@@H](C)CC)[C@@H](C)CC)[C@@H](C)CC [Avathrin] (H-SGGHQTAVPKISKQGLGGDFEEIPSDEIIE-OH; N-terminus and C-terminus assumed)
[1]; 3 mg/kg intravenously
  time to occlusion (TTO): 15.03 ± 3.23 min
[1]; 10 mg/kg intravenously
  time to occlusion (TTO): 22.51 ± 4.19 min
[2]; 100 μM avathrin
  inhibition of other proteases: < 30%
[2]; thrombin versus other serine proteases
  selectivity preference for thrombin: at least four orders of magnitude

From patent US10906946B2, “Thrombin inhibitors” (priority 2015, dated 2021)
